The target of one experiment is human FLAP (Homo sapiens (Human), UniProt P20292). The experiment can be described thus: FLAP binding assay (HTRF format). Summed up:
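Samples were run in duplicate on each of two plates and the plate results averaged. Read-out is the HTRF signal ratio.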
A general note: TR-FRET usually uses a lanthanide donor and a delayed reading to cut background.

For experiment [1], the system named is leukotriene pathway in human whole blood (LTB4 levels). The experiment can be described thus: Human whole blood assay (A23187-stimulated LTB4). The class given is cell-based. Conditions: read-out: LTB4 IC50 1:1. A digest of the protocol:
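Compounds are pre-incubated 15 min at 37° Celsius in RPMI-diluted (1:1) heparinised whole blood before a 30 min A23187 stimulus (7 μg/mL). Plasma LTB4 is read by immunoassay kit, with IC50 calculated from a 4-parameter equation.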

Setting [2] is: human FLAP wild type, HTRF format, average of two plates, duplicates.
Where [3] appears, read: Homo sapiens, human whole blood diluted 1:1 in RPMI, A23187-stimulated LTB4.
Where [4] appears, read: read-out: FLAP Binding wild type HTRF Ki.
Where [5] appears, read: Homo sapiens, human whole blood diluted 1:1, A23187-stimulated.

Counter-ions that a name gives are not always drawn. Like-named read-outs stand apart in the source and are kept apart here.

The record followed here is patent publication US9079866B2, “Flap modulators” (JANSSEN PHARMACEUTICA NV, priority 2013, dated 2015).

Chain of human FLAP (P20292 whole entry): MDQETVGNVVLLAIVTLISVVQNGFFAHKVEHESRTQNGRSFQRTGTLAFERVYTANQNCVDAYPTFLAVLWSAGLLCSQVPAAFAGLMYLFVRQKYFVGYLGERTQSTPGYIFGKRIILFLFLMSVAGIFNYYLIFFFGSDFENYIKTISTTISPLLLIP

The compound `C[C@H]1CNCCN1S(=O)(=O)c1ccccc1-c1ccc(-c2cnc(N)nc2)c(F)c1` [Example 253, 5-(3-Fluoro-2′-{[(2S)-2-methylpiperazin-1-yl]sulfonyl}biphenyl-4-yl)pyrimidin-2-amine] showed a Ki at human FLAP (setting [2]) of 134 nM. For the same compound, in experiment [1] (setting [3]), the IC50 was found to be 191 nM.
Regarding `Nc1ncc(-c2ccc(-c3ccccc3S(=O)(=O)NCCO)cc2F)cn1` [Example 275, 4′-(2-Aminopyrimidin-5-yl)-3′-fluoro-N-(2-hydroxyethyl)biphenyl-2-sulfonamide trifluoroacetic acid salt], on human FLAP (setting [4]), the Ki was 65 nM. In experiment [1] (setting [3]), the IC50 stood at 192 nM.
For `Nc1cnc(-c2ccc(-c3ccccc3CS(N)(=O)=O)cc2F)cn1` [Example 230, 1-[4′-(5-Aminopyrazin-2-yl)-3′-fluorobiphenyl-2-yl]methanesulfonamide hydrochloride], at human FLAP (setting [2]), the Ki was determined as 1200 nM. Besides, the 50% inhibitory concentration (IC50) in experiment [1] (setting [3]) was determined as 5000 nM.
At human FLAP (wild type FLAP, HTRF format), `Nc1ccnc(Oc2ccccc2-c2ccc(-c3cnc(N)nc3)c(F)c2)n1` [Example 529, 5-{2′-[(4-Aminopyrimidin-2-yl)oxy]-3-fluorobiphenyl-4-yl}pyrimidin-2-amine] yielded a Ki of 36 nM. In addition, the IC50 in experiment [1] (setting [5]) was 90 nM.
At human FLAP (wild type FLAP, HTRF format), `C[C@@H](O)CNS(=O)(=O)c1ccccc1-c1ccc(-c2ncc(N)nc2C#N)c(F)c1` [Example 708, 4′-(5-Amino-3-cyanopyrazin-2-yl)-3′-fluoro-N-[(2R)-2-hydroxypropyl]biphenyl-2-sulfonamide] had a Ki of 23.5 nM. The IC50 in experiment [1] (setting [5]) was determined as 142 nM.
`CCNS(=O)(=O)c1cc(C(F)(F)F)ccc1-c1ccc(-c2cnc(N)nc2)c(F)c1` [Example 327, 4′-(2-Aminopyrimidin-5-yl)-N-ethyl-3′-fluoro-4-(trifluoromethyl)biphenyl-2-sulfonamide] gave a Ki on human FLAP (setting [2]) of 2 nM. In experiment [1] (setting [3]), the IC50 turned out to be 39 nM.
The compound `Nc1ccnc(Oc2ccccc2-c2ccc(-c3cnc4[nH]ccc4c3)c(F)c2)n1` [Example 524, 2-{[3′-Fluoro-4′-(1H-pyrrolo[2,3-b]pyridin-5-yl)biphenyl-2-yl]oxy}pyrimidin-4-amine] displayed a Ki at human FLAP (wild type FLAP, HTRF format) of 1 nM. In experiment [1] (setting [5]), the IC50 worked out at 18 nM.
On human FLAP (wild type FLAP, HTRF format), `Nc1cnc(-c2ccc(-c3ccccc3Oc3ccnc(C(F)(F)F)c3)cc2F)cn1` [Example 610, 5-(3-Fluoro-2′-{[2-(trifluoromethyl)pyridin-4-yl]oxy}biphenyl-4-yl)pyrazin-2-amine] had a Ki of 27.4 nM. The IC50 in experiment [1] (setting [5]) amounted to 117 nM.
Turning to `CC(C)(C)NS(=O)(=O)c1ccccc1-c1ccc(-c2cnc3[nH]ccc3n2)c(F)c1` [Example 371, N-tert-Butyl-3′-fluoro-4′-(5H-pyrrolo[2,3-b]pyrazin-2-yl)biphenyl-2-sulfonamide], at human FLAP (setting [2]), the Ki is 1 nM. In addition, the IC50 in experiment [1] (setting [3]) came out at 15 nM.
At human FLAP (wild type FLAP, HTRF format), `CC(CO)NS(=O)(=O)c1ccccc1-c1ccc(-c2cnc(N)c(C#N)n2)c(F)c1` (stereo in doubt) [Example 412, 4′-(5-Amino-6-cyanopyrazin-2-yl)-3′-fluoro-N-[(1S)-2-hydroxy-1-methylethyl]biphenyl-2-sulfonamide] yielded a Ki of 19 nM. The IC50 in experiment [1] (setting [5]) is 509 nM.
For `Nc1ncc(-c2ccc(-c3ccccc3S(=O)(=O)N3CCNC(=O)C3)cn2)cn1` [Example 687, 4-({2-[6-(2-Aminopyrimidin-5-yl)pyridin-3-yl]phenyl}sulonyl)piperazin-2-one], in that order: 740 nM and 3550 nM.
In the case of `Nc1cnc(-c2ccc(-c3ccccc3S(=O)(=O)NC3CCCCC3)cc2F)cn1` [Example 6, 4′-(5-Aminopyrazin-2-yl)-N-cyclohexyl-3′-fluorobiphenyl-2-sulfonamide], the Ki on human FLAP (setting [2]) turned out to be 1 nM. Besides, in experiment [1] (setting [3]), the IC50 worked out at 33 nM.
With `CCNS(=O)(=O)Cc1ccccc1-c1ccc(-c2cnc(N)cn2)c(F)c1` [Example 231, 1-[4′-(5-Aminopyrazin-2-yl)-3′-fluorobiphenyl-2-yl]-N-ethylmethanesulfonamide formate salt], the Ki on human FLAP (setting [4]) was 135 nM. Also, the IC50 in experiment [1] (setting [3]) was determined as 564 nM.
`C[C@@H](NS(=O)(=O)c1ccccc1-c1ccc(-c2cnc(N)nc2)c(F)c1)C(F)(F)F` [Example 268, 4′-(2-Aminopyrimidin-5-yl)-3′-fluoro-N-[(1R)-2,2,2-trifluoro-1-methylethyl]biphenyl-2-sulfonamide trifluoroacetic acid salt]: the Ki on human FLAP (setting [4]) was 11 nM. In addition, the IC50 in experiment [1] (setting [3]) came to 56 nM.
Turning to `COc1c(-c2ccccc2S(C)(=O)=O)ccc(-c2cnc(N)cn2)c1F` [Example 835, 5-[3-Fluoro-2-methoxy-2′-(methylsulfonyl)biphenyl-4-yl]pyrazin-2-amine], the Ki at human FLAP (wild type FLAP, HTRF format) was approximately 354 nM. The IC50 in experiment [1] (setting [5]) came out at 417 nM.
On the same counts, the results for `Nc1ncc(-c2ccc(-c3ccccc3-c3cnc(N)nc3)cc2F)cn1` [Example 844, 5,5′-(3′-Fluorobiphenyl-2,4′-diyl)dipyrimidin-2-amine] are 509 nM and 907 nM.
In the case of `Nc1cnc(-c2ccc(-c3ccccc3NS(=O)(=O)N3CCOCC3)cc2F)cn1` [Example 183, N-[4′-(5-Aminopyrazin-2-yl)-3′-fluorobiphenyl-2-yl]morpholine-4-sulfonamide], at human FLAP (setting [2]), the Ki is 34 nM. In addition, the IC50 in experiment [1] (setting [3]) is 130 nM.
`Nc1ncc(-c2ccc(-c3ccc(C(F)(F)F)cc3Oc3ncccn3)cc2F)cn1` [Example 552, 5-[3-Fluoro-2′-(pyrimidin-2-yloxy)-4′-(trifluoromethyl)biphenyl-4-yl]pyrimidin-2-amine] had a Ki at human FLAP (wild type FLAP, HTRF format) of 5 nM. In addition, the IC50 in experiment [1] (setting [5]) is 102 nM.
`CC(CO)(CO)NS(=O)(=O)c1ccccc1-c1ccc(-c2cnc(N)cn2)c(F)c1` [Example 147, 4′-(5-Aminopyrazin-2-yl)-3′-fluoro-N-[2-hydroxy-1-(hydroxymethyl)-1-methylethyl]biphenyl-2-sulfonamide] gave a Ki at human FLAP (setting [2]) of 1 nM. Moreover, the IC50 in experiment [1] (setting [3]) was 102 nM.
In turn, `C[C@@H](NS(=O)(=O)c1ccccc1-c1ccc(-c2cnc(N)cn2)c(F)c1)C(F)(F)F` [Example 20, (S)-4′-(5-Aminopyrazin-2-yl)-3′-fluoro-N-[(1S)-2,2,2-trifluoro-1-methylethyl]biphenyl-2-sulfonamide] displayed a Ki on human FLAP (setting [2]) of 1 nM. Also, the IC50 in experiment [1] (human whole blood diluted 1:1 in RPMI, A23187-stimulated LTB4) turned out to be 9 nM.
Take `C[C@H](CO)NS(=O)(=O)c1ccccc1-c1ccc(-c2cnc3[nH]ccc3c2)c(F)c1` [Example 363, 3′-Fluoro-N-[(1R)-2-hydroxy-1-methylethyl]-4′-(1H-pyrrolo[2,3-b]pyridin-5-yl)biphenyl-2-sulfonamide]: the Ki at human FLAP (setting [2]) was 1 nM. Besides, in experiment [1] (setting [3]), the IC50 turned out to be 184 nM.
For `CC(C)(C)NS(=O)(=O)c1ccccc1-c1ccc(-c2cnc3[nH]ccc3c2)c(F)c1` [Example 367, N-tert-Butyl-3′-fluoro-4′-(1H-pyrrolo[2,3-b]pyridin-5-yl)biphenyl-2-sulfonamide], in that order: 1 nM and 6 nM.
Regarding `Nc1ncc(-c2ccc(-c3ccccc3S(=O)(=O)N3CCCC(CO)C3)cc2F)cc1F` (racemic) [Example 672, (1-((4′-(6-Amino-5-fluoropyridin-3-yl)-3′-fluoro-[1,1′-biphenyl]-2-yl)sulfonyl)piperidin-3-yl)methanol], on human FLAP (wild type FLAP, HTRF format), the Ki is 13.7 nM. Moreover, the IC50 in experiment [1] (setting [5]) turned out to be 196 nM.
`CN1CCCC[C@@H](NS(=O)(=O)c2ccccc2-c2ccc(-c3cnc(N)cn3)c(F)c2)C1=O` [Example 29, (S)-4′-(5-Aminopyrazin-2-yl)-3′-fluoro-N-[(3S)-1-methyl-2-oxoazepan-3-yl]biphenyl-2-sulfonamide]: the inhibition constant (Ki) on human FLAP (setting [2]) stood at 59 nM. In experiment [1] (setting [3]), the IC50 worked out at 30 nM.
`CC(=O)N1CCC(S(=O)(=O)c2ncccc2-c2ccc(-c3cnc(N)cn3)c(F)c2)CC1` [Example 816, 1-((3-(4-(2-Aminopyrazin-5-yl)-3-fluorophenyl)pyridine-2-yl)sulfonyl)piperidin-1-yl)ethanone hydrogen chloride salt]: the Ki at human FLAP (wild type FLAP, HTRF format) is 21.8 nM. Moreover, the IC50 in experiment [1] (setting [5]) amounted to 46 nM.
On the same counts, the results for `C[C@H](CO)NS(=O)(=O)c1ccccc1-c1ccc(-c2nnc(N)s2)c(F)c1` [Example 439, (R)-4′-(5-Amino-1,3,4-thiadiazol-2-yl)-3′-fluoro-N-(1-hydroxypropan-2-yl)-[1,1′-biphenyl]-2-sulfonamide] are 63 nM and 300 nM.
The compound `CC(=O)NC1CCN(S(=O)(=O)c2ccccc2-c2ccc(-c3cnc(N)cn3)c(F)c2)CC1` [Example 75, N-(1-{[4′-(5-Aminopyrazin-2-yl)-3′-fluorobiphenyl-2-yl]sulfonyl}piperidin-4-yl)acetamide] had a Ki on human FLAP (setting [2]) of 12 nM. The 50% inhibitory concentration (IC50) in experiment [1] (setting [3]) was found to be 185 nM.
As to `Nc1cnc(-c2ccc(-c3ccccc3S(=O)(=O)N[C@@H]3CCCC[C@@H]3CO)cc2F)cn1` (racemic) [Example 122, racemic (cis)-4′-(5-Aminopyrazin-2-yl)-3′-fluoro-N-[2-(hydroxymethyl)cyclohexyl]biphenyl-2-sulfonamide], affinity at human FLAP (setting [2]) was put at a Ki of 1 nM. Moreover, the IC50 in experiment [1] (setting [3]) came out at 18 nM.
For `N#CCCN(C1CC1)S(=O)(=O)c1ccccc1-c1ccc(-c2cnc(N)cn2)c(F)c1` [Example 172, 4′-(5-Aminopyrazin-2-yl)-N-(2-cyanoethyl)-N-cyclopropyl-3′-fluorobiphenyl-2-sulfonamide], in that order: 4 nM and 20 nM.
The compound `Nc1ncc(-c2ccc(-c3cccnc3S(=O)(=O)C3CCS(=O)(=O)CC3)cc2F)cn1` [Example 819, 4-((3-(4-(2-aminopyrimidin-5-yl)-3-fluorophenyl)pyridine-2-yl)sulfonyl)tetrahydro-2H-thiopyran 1,1-dioxide] came in with a Ki on human FLAP (wild type FLAP, HTRF format) of 40.5 nM. The IC50 in experiment [1] (setting [5]) came out at 47.5 nM.

The Ki is the dissociation constant of the complex between target and ligand, obtained from inhibition or displacement. As usually defined, the IC50 is the concentration that gives 50% inhibition.
